Source: ChEMBL document CHEMBL1201862, “PubChem BioAssay data set” (2004)
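48-hour exposure; five concentrations; linearly interpolated endpoints. GI50: concentration for 50% inhibition of growth.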 Activity calls are given as the source filed them. Cut-off read from the data, not from the text of the source: active = GI50 up to about 1.1 µM and inactive = higher.

Columns and labels:
Test in all cases: NCI-60 cell line screen, 48 h
[1] = tested on: SK-MEL-28
[2] = tested on: COLO 205
[3] = tested on: OVCAR-3
[4] = tested on: A549
[5] = tested on: CCRF-CEM
[6] = tested on: U-251
[7] = tested on: DU-145
[8] = tested on: OVCAR-5
[9] = tested on: MOLT-4
[10] = tested on: Hs-578T
[11] = tested on: NCI-H226
[12] = tested on: A498
[13] = tested on: HCT-116
[14] = tested on: MCF7
[15] = tested on: OVCAR-8
[16] = tested on: SF-539
[17] = tested on: HT-29
[18] = tested on: HCT-15
[19] = tested on: SN12C
[20] = tested on: PC-3
[21] = tested on: SF-268
[22] = tested on: UO-31
[23] = tested on: SNB-19
[24] = tested on: NCI-H460
[25] = tested on: TK-10
[26] = tested on: SNB-75
[27] = tested on: SW-620
[28] = tested on: BT-549
[29] = tested on: SK-MEL-5
[30] = tested on: CAKI-1
[31] = tested on: HOP-62
[32] = tested on: K562
[33] = tested on: SK-OV-3
[34] = tested on: MDA-N
[35] = tested on: HOP-92
[36] = tested on: T47D
[37] = tested on: HL-60
[38] = tested on: HCC 2998
[39] = tested on: SK-MEL-2
[40] = tested on: 786-0
[41] = tested on: OVCAR-4
[42] = tested on: ACHN
[43] = tested on: SF-295
[44] = tested on: M14
[45] = tested on: LOX IMVI
[46] = tested on: MDA-MB-435
[47] = tested on: SR
[48] = tested on: NCI-H522
[49] = tested on: RPMI-8226
[50] = tested on: RXF 393
[51] = tested on: NCI-H23
[52] = tested on: EKVX
[53] = tested on: MDA-MB-231
[54] = tested on: IGROV-1
[55] = tested on: KM12
[56] = tested on: Malme-3M
[57] = tested on: NCI/ADR-RES
[58] = tested on: UACC-62
[59] = tested on: UACC-257

Measured: GI50

CC(=O)OCc1ccc2oc(=O)c(C(=O)Oc3ccccc3)cc2c1
inactive: [1] 86.9 µM | [2] 30.4 µM | [3] > 100 µM | [4] > 100 µM | [5] > 100 µM | [6] > 100 µM | [7] > 100 µM | [8] > 100 µM | [9] > 100 µM | [10] > 100 µM | [11] > 100 µM | [12] > 100 µM | [13] 15.6 µM | [14] 30.3 µM | [15] > 100 µM | [16] > 100 µM | [17] 30.1 µM | [19] 30.1 µM | [20] 16.2 µM | [21] 55.7 µM | [22] 35.2 µM | [23] > 100 µM | [24] 67.1 µM | [25] 23.8 µM | [26] > 100 µM | [27] 32.9 µM | [28] > 100 µM | [29] > 100 µM | [30] 20 µM | [31] > 100 µM | [32] 3.72 µM | [33] > 100 µM | [34] > 100 µM | [35] 20.3 µM | [36] 17.6 µM | [37] 52.1 µM | [38] > 100 µM | [39] > 100 µM | [40] 20.3 µM | [41] > 100 µM | [42] 91.6 µM | [43] > 100 µM | [44] > 100 µM | [45] > 100 µM | [46] 61.9 µM | [47] 33.3 µM | [48] > 100 µM | [49] > 100 µM | [50] 44.6 µM | [51] 32.6 µM | [52] 37.8 µM | [53] 27.8 µM | [54] > 100 µM | [55] > 100 µM | [56] > 100 µM | [57] > 100 µM | [58] 17.7 µM | [59] > 100 µM
19.5 µM: [18]

O=C1CC(NC2CC(=O)c3c(Br)sc(Br)c32)c2c(Br)sc(Br)c21 (stereo not drawn)
inactive: [1] 7.85 µM | [2] 3.04 µM | [3] 4.44 µM | [4] 17.5 µM | [6] 1.82 µM | [7] 4.58 µM | [8] 20.2 µM | [9] 2.26 µM | [10] 4.91 µM | [11] 17.4 µM | [12] 18.6 µM | [13] 2.14 µM | [14] 2.81 µM | [15] 3.26 µM | [16] 1.27 µM | [17] 2.84 µM | [19] 1.56 µM | [20] 2.48 µM | [21] 11.7 µM | [22] 2.24 µM | [23] 14.9 µM | [24] 18 µM | [25] 2.88 µM | [26] 15.7 µM | [27] 2.08 µM | [28] 14.1 µM | [29] 5.96 µM | [30] 3.63 µM | [31] 2.99 µM | [32] 2.55 µM | [33] 17.8 µM | [34] 2.06 µM | [35] 6 µM | [36] 2.46 µM | [37] 2.46 µM | [38] 17 µM | [39] 3.51 µM | [40] 1.51 µM | [41] 8.51 µM | [42] 2.39 µM | [43] 13.6 µM | [44] 5.58 µM | [45] 1.92 µM | [46] 3.72 µM | [47] 2.28 µM | [48] 1.81 µM | [50] 3.38 µM | [51] 9.48 µM | [52] 3 µM | [53] 3.42 µM | [54] 2.99 µM | [55] 1.99 µM | [56] 2.29 µM | [57] 13.9 µM | [58] 11.9 µM | [59] 2.03 µM
2.94 µM: [18]
active: [5] 0.998 µM | [49] 0.597 µM
